Experimental data from US11730717B1, “Melanin-inspired antimicrobial” (The Board of Regents for the Oklahoma Agricultural and …, priority 2020, dated 2023).
“And” between values parts separate entries of the source, which are not always exact repeats. Equal values may be shown once. “Also recorded” adds a separate entry of the source. Read-outs that look alike come from different tables or passages of the source.

Columns and labels:
[1] = system: Candida albicans strain SC5314; assay: Antifungal MIC assay; type: cell-based; conditions: for MIC: Candida albicans
Description: (§1) Cryptococcus neoformans serotype A strain H99 as well as Candida ablicans strain SC5314, were readily available in the lab. The stock of cells is stored at −80° C. to preserve the fungi and prevent contamination. The cells were grown and maintained in yeast extract-peptone-dextrose (YPD) media (Difco). Cryptococcus or Candida cells were incubated in YPD broth for 18 hrs at 30° C., in a shaking incubator. After the incubation period, they were washed three times in sterile phosphate-buffered saline (PBS) to remove all remaining residue of YPD. The cells were then quantified by using trypan blue dye exclusion in a hemocytometer.
(§2) C. albicans were suspended in RPMI with MOPS, 0.165M, at a concentration of 0.5×10^3 cells/mL. RPMI Mops media was added to a 96-well plate in a volume of 100 μL to every well, with the exception of column 1. An additional 80 μL of RPMI MOPS was added to column 4 for a total of 180 μL/per well. EIPE-1 was added to columns 2 and 4 with a volume of 20 μL at a concentration of 1 mg/mL. Contents were mixed, then serially diluted 100 μL down the plate until column 11. The last 100 μL was discarded, leaving column 12 blank. C. albicans was added at a volume of 100 μL per well from column 4 to column 12, so the final volume of the wells was 200 μL. Plates were incubated at 35° C. in a humid incubator for 48 hrs.

MRSA [2] = assay: Comparison with Methicillin and Gentamicin, recoverable CFU; type: cell-based, Staphylococcus aureus; conditions: compared with Methicillin and Gentamicin treatment
Description: To determine CFUs of PA and MRSA after exposure to DMSO, DBI, EIPE-1, Gentamicin or Methicillin, 10-fold serial dilutions were prepared in 96-well micro plates using multichannel pipettes. For each dilution, 25 ptL of each sample was pipetted onto a plate containing agar medium and incubated for 18 h at 37° C. The number of colonies for each dilution were counted and used to back calculate the number of bacteria per mL (CFU/mL) in each original bacterial culture.
EIPE-1 antimicrobial activity against MRSA and PA was compared to that of Methicillin and Gentamicin treatment. Bacterial cultures were grown, normalized and then exposed to either DBI, DMSO (solvent control), EIPE-1, Methicillin or Gentamicin (FIG. 3). […] This is highly significant and novel as methicillin resistance is a huge problem in hospitals and patient treatment worldwide. […] Gram-negative bacteria like PA have an outer membrane covered with lipopolysaccharides that protects the bacteria from antibiotics, dyes, and detergents from penetrating the bacterial cell.

MRSA [3] = assay: Kirby-Bauer disc diffusion assay; type: cell-based, Staphylococcus aureus; conditions: Staphylococcus aureus, 24-hour incubation at 37° C.
Description: The susceptibility of MRSA to EIPE-1 was determined by the Kirby-Bauer disc diffusion method. Using a cotton swab applicator, a lawn of the S. aureus clinical isolate was placed onto Mueller Hinton agar plates to cover the entire surface of the plate. Filter discs (size=6 mm) were added onto the bacterial lawn. EIPE-1, DBI, and DMSO (10 μL each) were then added onto the filter discs.
The efficacy of compound EIPE-1 was tested by the Kirby-Bauer disc assay. The Kirby-Bauer disc assay assesses the sensitivity of bacteria to antimicrobial agents. If the bacteria are sensitive to the antimicrobial being tested, then a zone of inhibition of bacterial growth is seen around the filter disc containing the antimicrobial. The Kirby-Bauer disc assay was used to test the antimicrobial efficacy of EIPE-1 against MRSA. EIPE-1 was reconstituted at 1 mg/mL in DMSO and serially diluted (10^−1 to 10^−5) after which 10 μL of each dilution (and DMSO as a solvent control) was added to a separate disc on an LB plate inoculated with a lawn of bacteria. The plates were incubated at 37° C. for 24 h, and the resulting radii zone sizes around each disc were then measured.

[4] = system: Gram-positive bacteria, including E. faecalis and clinical isolates MRSA; assay: MIC summary for Gram-positive bacteria; type: cell-based
Description: The minimum inhibitory concentrations (MICs) were determined by the broth microdilution method, following the guidelines of the Clinical and Laboratory Standards Institute (CLSI). Two-fold serial dilutions of EIPE-1, DBI, and Arm (starting with 1 mg/mL) were prepared in a 100 μL volume in 96-well microtiter plates. The dilution series included DMSO as a negative control. The bacterial culture […] was normalized to an OD600 of 0.2 and was then added to each well. Plates were incubated with shaking at 220 RPM at 37° C., and the MIC was determined based on the lowest concentration at which no visible growth of the bacterial isolate was observed.
In summary, a new antimicrobial, EIPE-1, was designed and synthesized, inspired by the black-brown pigment, Eumelanin. It was confirmed that the Eumelanin-inspired core DBI maintained its intrinsic antimicrobial activity, and that enhancement could be achieved with the incorporation of bactericidal moieties. […] Bactericidal effects of EIPE-1 against S. aureus were monitored and confirmed using the Live/Dead staining and fluorescent microscopy.

P. moltocida P-1581 = assay: MIC and MBC values (Table 2); type: cell-based; conditions: Pasteurella, P1581
[5] = system: Cryptococcus neoformans serotype A strain H99; assay: Antifungal MIC assay; type: cell-based
Description: as §1
as §2, with “neoformans” for “albicans”, “MOPS” for “Mops”, “well. Amphotericin B or” for “well.”

COC(=O)c1cc2c(C#Cc3ccc(OCCC[N+](C)(C)C)cc3)c(OC)c(OC)c(C#Cc3ccc(OCCC[N+](C)(C)C)cc3)c2n1C [EIPE-1, 3,3′-((((5,6-dimethoxy-2-(methoxycarbonyl)-1-methyl-1H-indole-4,7-diyl)bis(ethyne-2,1-diyl))bis(4,1-phenylene))bis(oxy))bis(N,N,N-trimethylpropan-1-aminium) iodide]
Minimum inhibitory concentration (MIC) for the isolate of C. albicans ([1]; 35° C., 48 hrs, RPMI with MOPS): 2.705 ± 0.3962 µg/mL
MIC ([1]; SC5314, 48 h, 35° C., 48 hrs, RPMI with MOPS, read-out: Minimum inhibitory concentration (MIC) for the isolate of C. albicans): 2.71 µg/mL
MIC ([1]; SC5314, across seven experiments, read-out: Candida MIC): 2.46 µg/mL
biocidal activity against MRSA (MRSA [2]): effective in killing MRSA; also recorded: exhibited biocidal activity
zone of inhibition at 10 µg/mL (MRSA [3]; 10 μL of 0.01 mg/mL on disc): 1 mm
zone of inhibition at 100 µg/mL (MRSA [3]; 10 μL of 0.1 mg/mL on disc): 1.5 mm
zone of inhibition at 1000 µg/mL (MRSA [3]; 10 μL of 1.0 mg/mL on disc): 2 mm
MIC [4]: 8 µg/mL to 16 µg/mL and 8.5 µM to 17 µM
MBC (P. moltocida P-1581): 64 µg/mL
MIC (P. moltocida P-1581): 64 µg/mL
MIC for C. neoformans [5]: 3.1 µg/mL
Minimum inhibitory concentration (MIC) for the isolate of C. neoformans ([5]; 35° C., 48 hrs, RPMI with MOPS): 1.749 ± 0.1080 µg·mL
MIC ([5]; Cryptococcus neoformans, read-out: MIC for C. neoformans): 1.75 µg/mL
MIC, C. neoformans ([5]; across seven MIC assays): 1.67 µg/mL
